Data as given in patent publication US20210346391A1, “TREATMENT OF PRURITUS WITH P2X3 MODULATORS” (Bellus Health Cough Inc., priority 2018, published 2021).

Legend:
[1] = test system: chloroquine (CQ) induced itch behavior; experiment: Chloroquine-induced mouse model of acute itch and its potentiation by α,β-Me-ATP; format: in vivo
[2] = test system: chronic itch behavior (spontaneous scratches); experiment: MC903 atopic dermatitis model of chronic itch; format: in vivo, mouse; details: Day 8
Method: MC903 (calcipotriol, Tocris) was dissolved in 100% ethanol and topically applied on C57B16/J male mouse ears (4 nmol in 40 μl, 10 μl per side of ear) or nape (4 nmol in 40 μl). This regimen was administered twice daily for 7 days. Scratching behaviors were recorded 16 h after the last MC903 treatment. […] Mice were placed individually into behavior chambers and video recorded at a side angle for 60-90 minutes. A scratch was defined as a lifting of the hind limb towards the nape or head to scratch and then a replacing of the limb back to the floor, regardless of how many scratching strokes take place between lifting and lowering of the hind limb. Experimenters for injections and observers of scratching behavior were blinded to the injection compounds and groups of mice, respectively.

[3] = test system: chronic itch behavior (spontaneous scratches); experiment: AEW (acetone-ether-water) dry skin model of chronic itch; format: in vivo, mouse; details: Day 10

CCN(CC)CCCC(C)Nc1ccnc2cc(Cl)ccc12 (stereo not shown) [CQ, chloroquine, reference compound] was tested, and the “number of scratches (mean ± s.e.m.)” value ([1]; mouse, in vivo) was 17.2±2.4 scratches.
CNC(=O)c1cc(F)c(-c2nc3cc(C)ccn3c2C[C@H]2CN(C(=O)OC)CCO2)c(F)c1 [Compound 1] was tested, and the “time course of spontaneous scratches in 10-min intervals” value ([2]; 2, 10, 50 mg/kg i.p., FIG. 8) was “significant effect on spontaneous scratches at 10 min, 20 min, 30 min, 40 min, 50 min, and 60 min time points”, the “spontaneous scratches in 60 min compared to vehicle” value ([2]; 2, 10, or 50 mg/kg i.p., statistically significant for all three doses, FIG. 7) was “dose-dependently decreased spontaneous scratches” and the “time course of spontaneous scratches in 10-min intervals” value ([3]; 2, 10, 50 mg/kg i.p., FIG. 6) was “significant effect on spontaneous scratches at 20 min, 40 min, 50 min, and 60 min”. For the same compound, the “spontaneous scratches in 60 min compared to vehicle” value ([3]; 2, 10, or 50 mg/kg i.p., statistically significant for all doses (p<0.001), FIG. 5) was “decreased spontaneous scratches”, the “number of scratches in 15 minutes (mean ± s.e.m.)” value ([1]; 20 μg CQ + 50 μM α,β-Me-ATP, 10 mg/kg i.p., vehicle 46.6±2.9, p=0.0084) was 28.3±4.6 scratches and the “decrease of the potentiation of CQ-induced itch by ATP” value ([1]; 20 μg CQ + 50 μM α,β-Me-ATP, 10 mg/kg i.p., vs vehicle) was 40%. The “scratching behavior compared to vehicle” value ([1]; 20 μg CQ + 50 μM α,β-Me-ATP, 2, 10, or 50 mg/kg i.p. 30 min before, FIG. 2) was “decreased scratching behavior”, the “number of scratches in 15 minutes (mean ± s.e.m.)” value ([1]; 20 μg CQ + 100 μM α,β-Me-ATP, 10 mg/kg i.p., vehicle 67±6.3, p=0.0074, FIG. 3) was 44.8±3.8 scratches and the “decrease of the potentiation of CQ-induced itch by higher concentrations of ATP” value ([1]; 20 μg CQ + 100 μM α,β-Me-ATP, 10 mg/kg i.p., vs vehicle) was 33%. For the same compound, the “decrease of itch induced by high dose CQ” value ([1]; 200 μg CQ, 10 mg/kg i.p., vs vehicle) was 21% and the “number of scratches in 30 minutes (mean ± s.e.m.)” value ([1]; high dose CQ 200 μg, 10 mg/kg i.p., vehicle 280±16.1, p=0.011, FIG. 4) was 221.8±12.9 scratches.
For Nc1ncnc2c1ncn2C1OC(COP(=O)(O)CP(=O)(O)OP(=O)(O)O)C(O)C1O (stereo not drawn) [α,β-Me-ATP, α,β-methylene-adenosine 5′-triphosphate, reference compound], the “number of scratches (mean ± s.e.m.)” value ([1]; co-injected i.d. low dose CQ (20 μg) + 10 μM α,β-Me-ATP, p=0.0013 vs CQ) was 28.2±2.2 scratches, the “scratching behavior compared to CQ only or CQ+10 μM α,β-Me-ATP” value ([1]; co-injected i.d. low dose CQ (20 μg) + 50 μM α,β-Me-ATP, p<0.001 vs CQ, FIG. 1) was “further increased scratching behaviors” and the “number of scratches (mean ± s.e.m.)” value ([1]; mice injected i.d. solely with 10 μM α,β-Me-ATP) was 2.4±0.9 scratches. For the same compound, the “number of scratches (mean ± s.e.m.)” value ([1]; mice injected i.d. solely with 50 μM α,β-Me-ATP) was 5.6±1.8 scratches.
